The target of data set [1] is T1, thrombin (Homo sapiens, UniProt P00734).
T1 construct: from tissue; host or cells: human plasma (thrombin generated in situ by tissue factor, phospholipids and CaCl2)
Description: Human Thrombin Generation Assay (TGA). In kind it is biochemical. To be noted: concentration that reduces endogenous thrombin potential AUC by 50%; human plasma; read-out: ETP EC50. On the procedure: Results for the human thrombin generation assay (TGA; not to be confused with “thermogravimetric analysis” which is used elsewhere and carries the same acronym. One of skill in the art will appreciate which meaning is intended based on context of the surrounding technical information.) were generated as follows. In a 96-well plate, 4 μL of 100, 33.3, 11.1, 3.7, 1.23, 0.41, 0.137, and 0.046 μM solutions of the test compounds in DMSO were added to sequential wells filled with 68 μL of a “TGA Working Solution.” See description of this solution as well as other relevant solutions below. The plate was incubated at room temperature for 10 minutes, whereupon 8 μL of warm “Substrate Solution” was added to each well, resulting in a 500 μM concentration of the substrate, Z-GGR-AMC (Z-Gly-Gly-Arg-7-amino-4-methylcoumarin·HCl), in each well. Fluorescence intensity data (Ex/Em 380/460 nm) collection began immediately using a Cytation™ or Synergy™ H1 96-well plate reader set to incubate the plate at 37° C. over the data collection time of 90 minutes following double-orbital shaking for a period of 4 seconds. Test compounds were measured parallel to blanks and controls, as well as to wells of the substrate in DMSO at various concentrations (2.50, 0.833, 0.278, 0.093 mM) in the buffers to generate a standard fluorescence curve. Data values were computed automatically, including the ETP EC50 value of the AUC, which is the concentration of the compound that reduces endogenous thrombin potential AUC by 50%.
The various solutions were prepared as follows. A HEPES/NaCl Assay buffer was made by combining 7.5 mL of 5M NaCl, 1.19 g 4-(2-hydroxyethyl)piperazine-1-ethanesulfonic acid (HEPES) and 230 mL of water. An “Innovin Master Solution” was made by combining 20 μL of Siemens Dade Innovin recombinant tissue factor and thromboplastin with 50 μL of 0.5 mM phospholipid-TGT acquired from DiaPharma® in 450 μL of the above HEPES/NaCl Assay buffer. This solution was then vortexed for a few seconds. Next the “Substrate Master Solution” was made by adding 3.2 mL DMSO to 100 mg of Z-GGR-AMC (Z-Gly-Gly-Arg-7-amino-4-methylcoumarin·HCl) and vortexing in a polystyrene tube. This solution was stored at −20° C. A “TGA Working Solution” was prepared by adding 6.2 mL of human plasma, 50 μL of the Innovin Master Solution, and 80 μL of phospholipids to 2.6 mL of HEPES/NaCl Assay buffer. A “Substrate Working Solution” was made immediately before addition to the assay plate by adding 200 μL of the above “Substrate Master Solution” to a pre-warmed (37° C.) mixture of 1.46 mL of HEPES/NaCl Assay buffer and 340 μL of 1M CaCl2).
For additional description of this assay, please see Robert, S. et al. ‘Is thrombin generation the new rapid, reliable and relevant pharmacological tool for the development of anticoagulant drugs?’2009, Pharmacol Res 59:160-6 as well as Hemker, H. C. et al. ‘Calibrated automated thrombin generation measurement in clotting plasma.’ 2003, Pathophysiol Haemost Thromb 33:4-15.

Data set [2] in a line: Rat plasma stability. In kind it is in vitro ADME. To be noted: Sprague-Dawley; SD rat plasma, 37° C., time points to 160 min; read-out: Rat Plasma Stability t1/2. On the procedure:
Alongside a positive control of propantheline bromide, 8 μL of a 1 mM solution of each test compound in DMSO was placed in two wells of a Nunc™ 96-well plate called the “dilution plate.” To one well, 392 μL of HyClone™ water was added and mixed by a pipette. To the other well, 392 μL of mouse or rat plasma stabilized with sodium citrate purchased from Innovative Research was added and mixed by a pipette. The dilution plate was kept covered to reduce solvent evaporation and heated in an incubator at 37° C. At each of the time points enumerated below, the plate was removed from the incubator and 50 μL of the test compound/water or test compound/plasma solutions were transferred to a unique, corresponding well in a “quench plate” (96-well Costar® plate) that contains 150 μL of a quench solution that contains an internal standard (20 uM diclofenac in acetonitrile). The dilution plate was then returned to the incubator. This process was performed at 0, 5, 10, 20, 40, 80, and 160 minutes from the original mixing of the test compounds with the water or plasma in the dilution plate. After the quenching of the 160-minute time point, the quench plate was then centrifuged at 4° C. at 1000×g for 10 minutes. 100 μL of the supernatant of each well were then transferred to corresponding unique wells in a “read plate” (96-well Costar® plate) that were filled with 100 μL of HyClone™ water. The plate was then sealed and analyzed via UHPLC using a 10-μL sample injection through a Phenomenex® Kinetex column pre-equilibrated with the loading buffer (95:5 water:acetonitrile). The parameters were as follows. Mobile Phase A: water, 0.025% formic acid. Mobile Phase B: acetonitrile, 0.025% formic acid. Flow Rate: 0.5 mL/min. […] Half-life (t1/2) times were computed by using a chi-square analysis to fit the peak areas to an exponential decay model for compound concentration as a function of time.

pEC50: −log10 of the molar value.

This note sets out measurements from patent US11865110B2, “Thrombin inhibitors, formulations, and uses thereof” (VERSEON INTERNATIONAL CORPORATION, priority 2018, dated 2024).

With `CC(C)(C)C(=O)n1nc(-c2cccn(CCCC(=O)O)c2=O)cc1NCc1ccc(Cl)s1` [Compound 5, 4-[3-(5-{[(5-chlorothiophen-2-yl)methyl]amino}-1-(2,2-dimethylpropanoyl)-1H-pyrazol-3-yl)-2-oxo-1,2-dihydropyridin-1-yl]butanoic acid], the pEC50 in data set [1] was 5.85. Moreover, the half-life at 20 µM in data set [2] is 1.13 h.

For `CC(C)(C)C(=O)n1nc(-c2cccn(CCC(N)=O)c2=O)cc1NCc1ccc(Cl)s1` [Compound 8, 3-[3-(5-{[(5-chlorothiophen-2-yl)methyl]amino}-1-(2,2-dimethylpropanoyl)-1H-pyrazol-3-yl)-2-oxo-1,2-dihydropyridin-1-yl]propanamide], the pEC50 in data set [1] is 6.00. Moreover, the half-life at 20 µM in data set [2] was 1.13 h.

As to `CC(C)(C)C(=O)n1nc(-c2cccn(CCC(=O)O)c2=O)cc1NCc1ccc(Cl)s1` [Compound 1, 3-[3-(5-{[(5-chlorothiophen-2-yl)methyl]amino}-1-(2,2-dimethylpropanoyl)-1H-pyrazol-3-yl)-2-oxo-1,2-dihydropyridin-1-yl]propanoic acid], the pEC50 in data set [1] was 5.77 to 6.03. The half-life at 20 µM in data set [2] lay within 1.13 to 1.83 h.

As to `CC(C)(C)C(=O)n1nc(-c2cccn(CC(=O)O)c2=O)cc1NCc1ccc(Cl)s1` [Compound 4, 2-[3-(5-{[(5-chlorothiophen-2-yl)methyl]amino}-1-(2,2-dimethylpropanoyl)-1H-pyrazol-3-yl)-2-oxo-1,2-dihydropyridin-1-yl]acetic acid], in data set [1], the pEC50 is 5.21 to 5.55. Besides, the half-life at 20 µM in data set [2] amounted to 3 h.

`CC(C)(N)Cn1cccc(-c2cc(NCc3ccc(Cl)s3)n(C(=O)c3ccoc3)n2)c1=O` [Compound 9, 1-(2-amino-2-methylpropyl)-3-(5-{[(5-chlorothiophen-2-yl)methyl]amino}-1-(furan-3-carbonyl)-1H-pyrazol-3-yl)-1,2-dihydropyridin-2-one]: the pEC50 in data set [1] was 6.37. The half-life at 20 µM in data set [2] was 1.13 h.

As to `CCC(C)(C)C(=O)n1nc(-c2cccn(CCC(=O)O)c2=O)cc1NCc1ccc(Cl)s1` [Compound 11, 3-[3-(5-{[(5-chlorothiophen-2-yl)methyl]amino}-1-(2,2-dimethylbutanoyl)-1H-pyrazol-3-yl)-2-oxo-1,2-dihydropyridin-1-yl]propanoic acid], the pEC50 in data set [1] was 6.02. In data set [2], the half-life at 20 µM was not below 5 h.

Regarding `O=C(O)CCn1cccc(-c2cc(NCc3ccc(Cl)s3)[nH]n2)c1=O` [Compound 2, 3-[3-(5-{[(5-chlorothiophen-2-yl)methyl]amino}-1H-pyrazol-3-yl)-2-oxo-1,2-dihydropyridin-1-yl]propanoic acid], in data set [1], the negative logarithm of the EC50 (pEC50) is less than 4.00. The half-life at 20 µM in data set [2] is not below 5 h.

`O=C(O)Cn1cccc(-c2cc(NCc3ccc(Cl)s3)[nH]n2)c1=O` [Compound 3, 2-[3-(5-{[(5-chlorothiophen-2-yl)methyl]amino}-1H-pyrazol-3-yl)-2-oxo-1,2-dihydropyridin-1-yl]acetic acid]: the pEC50 in data set [1] is less than 4.00. Also, the half-life at 20 µM in data set [2] is not below 5 h.

Regarding `O=C(O)CCn1cccc(-c2cc(NCc3ccc(Cl)s3)n(C(=O)c3ccoc3)n2)c1=O` [Compound 12, 3-[3-(5-{[(5-chlorothiophen-2-yl)methyl]amino}-1-(furan-3-carbonyl)-1H-pyrazol-3-yl)-2-oxo-1,2-dihydropyridin-1-yl]propanoic acid], in data set [1], the pEC50 was 5.68 to 5.85. The half-life at 20 µM in data set [2] amounted to 3 h.

Broadly, the pEC50 is the negative decadic logarithm of the EC50, by convention in mol/L.
